How the values were obtained:
PARP = experiment: Western blot of PAR, a direct product of PARP; type: cell-based, human; settings: MDA-MB-231 (2 μM) and OVCAR5 (0.5 μM) cells, 48 h
Experimental: Cells were washed with PBS, collected with scraper, and then lysed in RIPA buffer containing 1× protease and phosphatase inhibitors for 30 min on ice. The supernatants were collected by centrifugation at full speed for 10 min at 4 °C and subjected to SDS-PAGE followed by immunoblotting as described before. Signals were detected using enhanced chemiluminescence (Millipore, Burlington, MA, USA) and captured by the G: BOX Chemi XRQ gel doc System (Syngene, Cambridge, UK).
Figure 3 ZC-22 inhibits CDK4/6 and PARP to induce cell-cycle arrest, DNA damage, and apoptosis in breast and ovarian cancer cells. (A,B) MDA-MB-231 cells were treated with 2 μM LY2835219 (LY-2) or ZC-22. […] The levels of CDK4/6 and p-Rb/Rb were determined by Western blot (A). Cell-cycle distribution was analyzed by flow cytometry (B). […] (D,E) Representative pictures (left) and quantification of percentage (right) of γH2A.X-positive cells in MDA-MB-231 cells treated with 2 μM OLA or ZC-22 for 24 h (D), or OVCAR5 cells treated with 0.5 μM OLA or ZC-22 for 24 h (E). Values are means ± SD, n = 3. * p < 0.05, ** p < 0.01, and *** p < 0.001 for comparisons with the DMSO-treated group. p value was calculated using an unpaired t-test. […] Values are means ± SD, n = 3. * p < 0.05, ** p < 0.01, and *** p < 0.001 vs. the DMSO-treated group. p value was calculated using an unpaired t-test. […]

[1] = test system: MDA-MB-231 and OVCAR5 cells; experiment: PI-based cell-cycle analysis by flow cytometry; parameters: species or system human; settings: MDA-MB-231 (2 μM) and OVCAR5 (0.5 μM) cells; 24 h
Experimental: MDA-MB-231 cells were treated with 2 μM LY2835219 or ZC-22, and OVCAR5 cells were treated with 0.5 μM LY2835219 or ZC-22 for 24 h. After washing in PBS, cells were fixed with 70% ethanol on ice for 2 h, followed by centrifugation at 300× g—for 20 min at 4 °C, and then subjected to a propidium iodide (PI, BD Biosciences, Franklin Lakes, NJ, USA) based cell-cycle analysis according to the manufacturer’s protocols. Cell-cycle distribution was analyzed by flow cytometry. Each experiment was performed in triplicates.
Figure 3 ZC-22 inhibits CDK4/6 and PARP to induce cell-cycle arrest, DNA damage, and apoptosis in breast and ovarian cancer cells. […] The levels of CDK4/6 and p-Rb/Rb were determined by Western blot (A). Cell-cycle distribution was analyzed by flow cytometry (B). […] (D,E) Representative pictures (left) and quantification of percentage (right) of γH2A.X-positive cells in MDA-MB-231 cells treated with 2 μM OLA or ZC-22 for 24 h (D), or OVCAR5 cells treated with 0.5 μM OLA or ZC-22 for 24 h (E). Values are means ± SD, n = 3. * p < 0.05, ** p < 0.01, and *** p < 0.001 for comparisons with the DMSO-treated group. p value was calculated using an unpaired t-test. (F,G) Representative pictures (F) and quantification of percentage (G) of apoptotic cells in MDA-MB-231 cells treated with 2 μM LY-2, OLA, or ZC-22 for 48 h or in OVCAR5 cells treated with 0.5 μM LY-2, OLA or ZC-22 for 48 h. […]

Cc1nc2c(F)cc(-c3nc(Nc4ccc(N5CCN(C(=O)c6cc(Cc7n[nH]c(=O)c8ccccc78)ccc6F)CC5)cn4)ncc3F)cc2n1C(C)C [ZC-22, 4-(4-fluoro-3-(4-(6-((5-fluoro-4-(4-fluoro-1-isopropyl-2-methyl-1H-benzo[d]imidazole-6-yl)pyrimidin-2-yl)amino)pyridin-3-yl)piperazine-1-carbonyl)benzyl)phthalazin-1(2H)-one]
PAR expression (PARP): effectively inhibited PAR expression
cell-cycle distribution [1]: dramatically arrested cell cycle at the G1/S check-point
